The values that follow come from patent US10626112B2, “Heterocyclic sulfonamide derivative and medicine comprising same” (EA PHARMA CO., LTD., priority 2014, dated 2020).

Sequence of human TRPA1 (O75762 whole entry): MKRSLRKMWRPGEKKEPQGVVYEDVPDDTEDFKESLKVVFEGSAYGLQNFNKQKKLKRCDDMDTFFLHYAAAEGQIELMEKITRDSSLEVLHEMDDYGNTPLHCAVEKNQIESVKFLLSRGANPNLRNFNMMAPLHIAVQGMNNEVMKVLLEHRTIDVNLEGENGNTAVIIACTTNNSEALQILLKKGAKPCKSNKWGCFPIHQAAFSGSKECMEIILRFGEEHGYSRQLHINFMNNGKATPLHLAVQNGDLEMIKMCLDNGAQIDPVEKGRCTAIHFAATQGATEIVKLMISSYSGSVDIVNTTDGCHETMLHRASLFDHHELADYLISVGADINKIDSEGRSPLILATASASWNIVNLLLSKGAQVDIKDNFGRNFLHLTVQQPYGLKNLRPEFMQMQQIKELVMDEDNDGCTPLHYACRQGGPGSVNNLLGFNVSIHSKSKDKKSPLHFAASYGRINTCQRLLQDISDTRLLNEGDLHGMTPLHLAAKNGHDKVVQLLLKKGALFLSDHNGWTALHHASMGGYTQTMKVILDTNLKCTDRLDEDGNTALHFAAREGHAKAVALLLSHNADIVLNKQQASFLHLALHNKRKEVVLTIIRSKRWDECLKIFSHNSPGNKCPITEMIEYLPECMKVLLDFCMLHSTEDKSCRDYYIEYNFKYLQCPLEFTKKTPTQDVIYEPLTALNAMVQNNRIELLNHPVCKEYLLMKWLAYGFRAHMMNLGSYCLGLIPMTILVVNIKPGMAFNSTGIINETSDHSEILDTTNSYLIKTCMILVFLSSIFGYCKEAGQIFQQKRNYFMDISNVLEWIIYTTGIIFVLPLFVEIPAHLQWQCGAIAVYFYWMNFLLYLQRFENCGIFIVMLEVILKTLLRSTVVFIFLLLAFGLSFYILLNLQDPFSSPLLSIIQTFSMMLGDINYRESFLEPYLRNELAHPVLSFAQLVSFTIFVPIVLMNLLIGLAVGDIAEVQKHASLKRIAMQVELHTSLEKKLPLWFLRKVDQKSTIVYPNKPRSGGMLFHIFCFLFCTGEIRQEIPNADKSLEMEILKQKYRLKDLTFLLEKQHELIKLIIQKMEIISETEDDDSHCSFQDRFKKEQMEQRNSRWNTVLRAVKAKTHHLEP

For the test, the target named is human TRPA1 (Homo sapiens (Human), UniProt O75762). In words: Measurement of TRPA1 antagonist activity (1): intracellular calcium increase. The following applies: 293T cells transfected with human TRPA1 expression plasmid; allylisothiocyanate 20 μM stimulation; intracellular calcium fluorescence; read-out: hTRPA1 IC50. The format is cell-based. Put shortly:
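HEK293T cells transiently transfected with full-length human TRPA1, loaded with Calcium4 dye in HBSS/20 mM HEPES pH 7.2. Test compound preincubated 10 min, then allylisothiocyanate added at 20 μM final and fluorescence change followed for 5 min. IC50 from sigmoid fit of percent inhibition relative to agonist and buffer controls.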
For orientation: Calcium flux is commonly read through the fluorescence of an indicator in the cells.
For orientation: IC50 means the point on the concentration scale where inhibition reaches its midpoint. Turning to `C[C@H](NS(=O)(=O)c1cc2cc(F)ccc2o1)C(=O)NCc1ccnc(-c2ccc(C(F)(F)F)nc2)c1` [Example 236, (2S)-2-[(5-fluorobenzofuran-2-yl)sulfonylamino]-N-[[2-[6-(trifluoromethyl)-3-pyridyl]-4-pyridyl]methyl]propanamide], the IC50 was 0.031 µM.

For the compound `O=C(NCc1cccc(C[S+]([O-])c2ccc(C(F)(F)F)cc2)c1)[C@@H]1CCCN1S(=O)(=O)c1cc2ccccc2o1` (stereo partly drawn) [Example 325, (2S)-1-(benzofuran-2-ylsulfonyl)-N-[[3-[[4-(trifluoromethyl)phenyl]sulfinylmethyl]phenyl]methyl]pyrrolidine-2-carboxamide], the IC50 worked out at 0.56 µM.

Turning to “(2S)-1-(5-fluorobenzofuran-2-yl)sulfonyl-N-[[3-[2-methyl-5-(trifluoromethyl)pyrazol-3-yl]phenyl]methyl]pyrrolidine-2-carboxamide [Example 164]”, the IC50 came to 0.0071 µM.

`C[C@H](NS(=O)(=O)c1cc2cc(F)ccc2o1)C(=O)NCc1cccc(OCc2ccc(C(F)(F)F)cc2)c1` [Example 49, (2S)-2-[(5-fluorobenzofuran-2-yl)sulfonylamino]-N-[[3-[[4-(trifluoromethyl)phenyl]methoxy]-phenyl]methyl]propanamide]: the IC50 came to 0.018 µM.

For the compound `O=C(NCc1cc(-c2ccc(C(F)(F)F)cn2)ccn1)[C@@H]1CCCN1S(=O)(=O)c1cc2c(Cl)nccc2o1` [Example 265, (2S)-1-(4-chlorofuro[3,2-c]pyridin-2-yl)sulfonyl-N-[[4-[5-(trifluoromethyl)-2-pyridyl]-2-pyridyl]methyl]pyrrolidine-2-carboxamide], the IC50 turned out to be 0.012 µM.

As for `O=C(NCc1cccc(S(=O)(=O)Cc2ccc(C(F)(F)F)cc2)c1)[C@@H]1CCCN1S(=O)(=O)c1cc2ccccc2o1` [Example 324, (2S)-1-(benzofuran-2-ylsulfonyl)-N-[[3-[[4-(trifluoromethyl)phenyl]methylsulfonyl]phenyl]methyl]pyrrolidine-2-carboxamide], the IC50 came out at 0.49 µM.

Regarding `C[C@H](NS(=O)(=O)c1cc2cc(F)ccc2o1)C(=O)NCc1cccc(OCc2ccc(C#N)cc2)c1` [Example 184, (2S)-N-[[3-[(4-cyanophenyl)methoxy]phenyl]methyl]-2-[(5-fluorobenzofuran-2-yl)sulfonylamino]propanamide], the IC50 amounted to 0.041 µM.

For the compound `C[C@H](NS(=O)(=O)c1cc2cnccc2o1)C(=O)NCc1cc(-c2ccc(C(F)(F)F)cn2)ccn1` [Example 304, (2S)-2-(furo[3,2-c]pyridin-2-ylsulfonylamino)-N-[[4-[5-(trifluoromethyl)-2-pyridyl]-2-pyridyl]methyl]propanamide], the IC50 is 0.35 µM.

Consider `O=C(NCc1ccc(F)c(-c2ccc(C(F)(F)F)cn2)c1)[C@@H]1CCCN1S(=O)(=O)c1cc2ccccc2o1` [Example 309, (2S)-1-(benzofuran-2-ylsulfonyl)-N-[[4-fluoro-3-[5-(trifluoromethyl)-2-pyridyl]phenyl]methyl]pyrrolidine-2-carboxamide], for which the IC50 was determined as 0.01 µM.

`O=C(NCc1ccc(Oc2ccnc(C(F)(F)F)c2)cc1)[C@@H]1CCCN1S(=O)(=O)c1cc2ccccc2o1` [Example 55, (2S)-1-(benzofuran-2-ylsulfonyl)-N-[[4-[[2-(trifluoromethyl)-4-pyridyl]oxy]phenyl]methyl]-pyrrolidine-2-carboxamide]: the IC50 came out at 0.088 µM.

As for `O=C(NCc1ccc(O)c(-c2ncc(C(F)(F)F)cn2)c1)[C@@H]1CCCN1S(=O)(=O)c1cc2ccccc2o1` [Example 213, (2S)-1-(benzofuran-2-ylsulfonyl)-N-[[4-hydroxy-3-[5-(trifluoromethyl)-pyrimidin-2-yl]phenyl]-methyl]pyrrolidine-2-carboxamide], the IC50 came out at 0.047 µM.

On to `O=C(NCc1ccnc(-c2ccc(C(F)(F)F)cc2)c1)[C@@H]1CCCN1S(=O)(=O)c1cc2ccccc2o1` [Example 115, (2S)-1-(benzofuran-2-ylsulfonyl)-N-[[2-[4-(trifluoromethyl)phenyl]-4-pyridyl]methyl]pyrrolidine-2-carboxamide], for which the IC50 turned out to be 0.0024 µM.
